PubChem BioAssay (NCI)
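GI50: concentration for 50% inhibition of growth. The concentration for full growth arrest is given as TGI.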

Columns and labels:
Test in all cases: NCI-60 cell line screen, 384-well format
LOX IMVI melanoma = system: LOX IMVI melanoma
TK-10 renal = system: TK-10 renal
SK-MEL-28 melanoma = system: SK-MEL-28 melanoma
MDA-MB-468 breast = system: MDA-MB-468 breast
NCI-H226 lung = system: NCI-H226 lung
U251 glioblastoma = system: U251 glioblastoma
SW-620 colon = system: SW-620 colon
786-0 renal = system: 786-0 renal
MCF7 breast = system: MCF7 breast
A498 renal = system: A498 renal
NCI-H23 lung = system: NCI-H23 lung
MDA-MB-435 melanoma = system: MDA-MB-435 melanoma
MDA-MB-231 breast = system: MDA-MB-231 breast
OVCAR-4 ovarian = system: OVCAR-4 ovarian
PC-3 prostate = system: PC-3 prostate
KM12 colon = system: KM12 colon
MALME-3M melanoma = system: MALME-3M melanoma
HOP-62 NSCLC = system: HOP-62 NSCLC
NCI/ADR-RES ovarian = system: NCI/ADR-RES ovarian
ACHN renal = system: ACHN renal
RPMI-8226 leukemia = system: RPMI-8226 leukemia
UO-31 renal = system: UO-31 renal
OVCAR-5 ovarian = system: OVCAR-5 ovarian
HOP-92 NSCLC = system: HOP-92 NSCLC
UACC-62 melanoma = system: UACC-62 melanoma
NCI-H522 lung = system: NCI-H522 lung
A549 NSCLC = system: A549 NSCLC
SN12C renal = system: SN12C renal
NCI-H322M lung = system: NCI-H322M lung
K-562 leukemia = system: K-562 leukemia
SNB-75 CNS = system: SNB-75 CNS
SF-268 CNS = system: SF-268 CNS
M14 melanoma = system: M14 melanoma
NCI-H460 NSCLC = system: NCI-H460 NSCLC
EKVX NSCLC = system: EKVX NSCLC
IGROV1 ovarian = system: IGROV1 ovarian
T-47D breast = system: T-47D breast
SK-MEL-5 melanoma = system: SK-MEL-5 melanoma
SK-OV-3 ovarian = system: SK-OV-3 ovarian
HCC-2998 colon = system: HCC-2998 colon
HT29 colon = system: HT29 colon
OVCAR-8 ovarian = system: OVCAR-8 ovarian
HS 578T breast = system: HS 578T breast
SF-295 CNS = system: SF-295 CNS
CCRF-CEM leukemia = system: CCRF-CEM leukemia
SF-539 CNS = system: SF-539 CNS
HCT-15 colon = system: HCT-15 colon
HCT-116 colon = system: HCT-116 colon
OVCAR-3 ovarian = system: OVCAR-3 ovarian
UACC-257 melanoma = system: UACC-257 melanoma
CAKI-1 renal = system: CAKI-1 renal
SNB-19 CNS = system: SNB-19 CNS
DU-145 prostate = system: DU-145 prostate
BT-549 breast = system: BT-549 breast

For `COc1ccc2c(c1)[C@]1(C[C@H]1c1ccc3c(/C=C/c4ccc(CN5C[C@@H](C)O[C@@H](C)C5)cc4)n[nH]c3c1)C(=O)N2`, the GI50 (LOX IMVI melanoma) was 1650 nM, the TGI (LOX IMVI melanoma) was 3.64 µM and the GI50 (TK-10 renal) was 3.66 µM. It also gave a TGI (TK-10 renal) of 27.9 µM, a GI50 (SK-MEL-28 melanoma) of 5.22 µM and a TGI (SK-MEL-28 melanoma) of 20.9 µM. For the same molecule, the GI50 (MDA-MB-468 breast) was less than 10 nM, the TGI (MDA-MB-468 breast) was 70 nM and the GI50 (NCI-H226 lung) was 1250 nM. The TGI (NCI-H226 lung) was 14.2 µM, the GI50 (U251 glioblastoma) was 2340 nM and the TGI (U251 glioblastoma) was 6.9 µM. It also gave a GI50 (SW-620 colon) of 2620 nM, a TGI (SW-620 colon) of 11.9 µM and a GI50 ([…]-0 renal) of 1630 nM. The TGI (786-0 renal) was 3.37 µM, the GI50 (MCF7 breast) was 1640 nM and the TGI (MCF7 breast) was 3.31 µM. For the same molecule, the GI50 (A498 renal) was 2330 nM, the TGI (A498 renal) was 6.32 µM and the GI50 (NCI-H23 lung) was 1670 nM. For the same molecule, the TGI (NCI-H23 lung) was 4.27 µM, the GI50 (MDA-MB-435 melanoma) was 4.64 µM and the TGI (MDA-MB-435 melanoma) was 17.4 µM. It also gave a GI50 (MDA-MB-231 breast) of 3.05 µM, a TGI (MDA-MB-231 breast) of 10.4 µM and a GI50 (OVCAR-4 ovarian) of 5.15 µM. It also gave a TGI (OVCAR-4 ovarian) of 28 µM, a GI50 (PC-3 prostate) of 3.28 µM and a TGI (PC-3 prostate) of 11 µM. For the same molecule, the GI50 (KM12 colon) was 17.1 nM, the TGI (KM12 colon) was 1680 nM and the GI50 (MALME-3M melanoma) was 1260 nM. It also gave a TGI (MALME-3M melanoma) of 2640 nM, a GI50 (HOP-62 NSCLC) of 1070 nM and a TGI (HOP-62 NSCLC) of 3.32 µM. It also gave a GI50 (NCI/ADR-RES ovarian) of 1820 nM, a TGI (NCI/ADR-RES ovarian) of 7.14 µM and a GI50 (ACHN renal) of 2730 nM. It also gave a TGI (ACHN renal) of 16.8 µM, a GI50 (RPMI-8226 leukemia) of 156 nM and a TGI (RPMI-8226 leukemia) of 3.4 µM. It also gave a GI50 (UO-31 renal) of 4.2 µM, a TGI (UO-31 renal) of 68.1 µM and a GI50 (OVCAR-5 ovarian) of 4.13 µM. It also gave a TGI (OVCAR-5 ovarian) of 64.5 µM, a GI50 (HOP-92 NSCLC) of 2190 nM and a TGI (HOP-92 NSCLC) of 7.29 µM. For the same molecule, the GI50 (UACC-62 melanoma) was 1810 nM, the TGI (UACC-62 melanoma) was 11 µM and the GI50 (NCI-H522 lung) was 2290 nM. For the same molecule, the TGI (NCI-H522 lung) was greater than 100 µM, the GI50 (A549 NSCLC) was 1190 nM and the TGI (A549 NSCLC) was 32.2 µM. The GI50 (SN12C renal) was 3.57 µM, the TGI (SN12C renal) was 52.9 µM and the GI50 (NCI-H322M lung) was 4.48 µM. For the same molecule, the TGI (NCI-H322M lung) was greater than 100 µM, the GI50 (K-562 leukemia) was 219 nM and the TGI (K-562 leukemia) was 896 nM. For the same molecule, the GI50 (SNB-75 CNS) was 1730 nM, the TGI (SNB-75 CNS) was 4.27 µM and the GI50 (SF-268 CNS) was less than 10 nM. It also gave a TGI (SF-268 CNS) of 2810 nM, a GI50 (M14 melanoma) of 2420 nM and a TGI (M14 melanoma) of 11.4 µM. It also gave a GI50 (NCI-H460 NSCLC) of less than 10 nM, a TGI (NCI-H460 NSCLC) of 2020 nM and a GI50 (EKVX NSCLC) of 3.76 µM. The TGI (EKVX NSCLC) was 46.8 µM, the GI50 (IGROV1 ovarian) was 4.81 µM and the TGI (IGROV1 ovarian) was greater than 100 µM. For the same molecule, the GI50 (T-47D breast) was 2070 nM, the TGI (T-47D breast) was 5.25 µM and the GI50 (SK-MEL-5 melanoma) was 1500 nM. It also gave a TGI (SK-MEL-5 melanoma) of 2850 nM, a GI50 (SK-OV-3 ovarian) of 3.29 µM and a TGI (SK-OV-3 ovarian) of 33.5 µM. The GI50 (HCC-2998 colon) was 2730 nM, the TGI (HCC-2998 colon) was 5.41 µM and the GI50 (HT29 colon) was 1820 nM. For the same molecule, the TGI (HT29 colon) was 3.56 µM, the GI50 (OVCAR-8 ovarian) was 2300 nM and the TGI (OVCAR-8 ovarian) was 9.75 µM. The GI50 (HS 578T breast) was 2230 nM, the TGI (HS 578T breast) was 4.38 µM and the GI50 (SF-295 CNS) was 2740 nM. The TGI (SF-295 CNS) was 15.1 µM, the GI50 (CCRF-CEM leukemia) was less than 10 nM and the GI50 (SF-539 CNS) was 1300 nM. The TGI (SF-539 CNS) was 2640 nM, the GI50 (HCT-15 colon) was 2670 nM and the TGI (HCT-15 colon) was 8.83 µM. It also gave a GI50 (HCT-116 colon) of 1560 nM, a TGI (HCT-116 colon) of 6.47 µM and a GI50 (OVCAR-3 ovarian) of 1330 nM. It also gave a TGI (OVCAR-3 ovarian) of 2890 nM, a GI50 (UACC-257 melanoma) of 2640 nM and a TGI (UACC-257 melanoma) of 8.98 µM. For the same molecule, the GI50 (CAKI-1 renal) was 3.6 µM, the TGI (CAKI-1 renal) was greater than 100 µM and the GI50 (SNB-19 CNS) was 3.34 µM. For the same molecule, the TGI (SNB-19 CNS) was 92.7 µM, the GI50 (DU-145 prostate) was 3.11 µM and the TGI (DU-145 prostate) was 12.9 µM. It also gave a GI50 (BT-549 breast) of 1680 nM and a TGI (BT-549 breast) of 3.22 µM.
